From article PMC3093368 (PLoS Pathogens, 2011) come the findings set out here.

Entries after “also recorded” stand apart in the source; their conditions may differ. Ends that are not written are not given here.

Data set [1] has as its system HIVLAI-infected T1-B7 cells / Q9VF/5D-specific CTLs. Nature of the data set: Mouse CTL recognition of HIV-infected T1-B7 cells after epoxomicin treatment (IFNγ-ELISpot). The class given is cell-based. The protocol:
Mouse CTL lines were derived from splenocytes of peptide immunized HLA-B*07^mα3 transgenic mice. In brief, these mice express HLA-B*0702 heavy chain with a murine α3 domain and their H-2K^b and H-2D^b class Ia genes have been inactivated. Cytolytic activity of splenocyte cultures was first assessed in a^51Cr release assay. Peptide specific CTL lines were stimulated in vitro (5 µg/mL of peptide) and cultured in RPMI 1640 medium supplemented with 10% FCS, 0.5 µM 2-β-mercaptoethanol (Sigma), 100 IU/mL penicillin and 100 µg/mL streptomycin (Gibco-BRL). Ten days later, 2×10^3, 400 and 80 CTLs in triplicates were stimulated by 10^5 HIV-1-infected T1-B7 cells and IFNγ release was detected by ELISpot assay. Cross-reactivity of Q9VF/5D- and Q9VF/5N-specific CTLs was tested in IFNγ-ELISpot and Cr^51-release assays using T1-B7 peptide-loaded cells. Mouse CTL lines specific for the HLA-B*0702-restricted HIV-1 Nef-derived epitope F10LR (Nef 68[…]77; [22]) were used as controls. When stated, HIV-infected T1-B7 cells were treated with epoxomicin (6 h, 1 µg/ml, Calbiochem). To remove residual MHC-peptide complexes, epoxomycin-exposed cells were treated with a citrate-phosphate buffer (pH 3.3) containing 1% BSA and washed twice, prior co-culture with CTLs for an additional 8 h.

The next data set has as its system immunoproteasome (IP). Nature of the data set: Immunoproteasomes isolated from T2.27mp cells; 20 mM Hepes/KOH, pH 7.8, 2 mM magnesium acetate, 2 mM dithiothreitol. The following applies: human, up to 18 h.
In a further data set the test system is immunoproteasomes (IP). Briefly: Immunoproteasomes isolated from T2.27mp cells, in 20 mM Hepes/KOH, pH 7.8, 2 mM magnesium acetate and 2 mM dithiothreitol. The following applies: up to 18 h.
Data set [2] is described as follows: In vitro immunoproteasome digestion of 27mer peptides, MS/MS analysis. The settings on record: immunoproteasomes isolated from T2.27mp cells, 3 nmol 27mer, 1 µg immunoproteasome; for metabolised at 0.5 h, 30 µM: 100 µl 20 mM Hepes/KOH pH 7.8, 2 mM Mg acetate, 2 mM DTT, RP-HPLC ESI MS intensity, 30 min, read-out: substrate degraded after 30 min; for metabolised at 2 h, 30 µM: Hepes/KOH pH 7.8, MS intensity, read-out: substrate degraded after 2 h. In kind it is in vitro ADME. The protocol:
Immunoproteasomes were isolated from T2.27mp cells (that stably express all three immunosubunits) as previously described. Purified proteasomes were analyzed by SDS-PAGE. The yield was calculated at 90–95%. The 27mer peptides encompassing Q9VF/5D or Q9VF/5N were synthesized using standard Fmoc method on an Applied Biosystems 433A automated synthesizer. The peptides were purified by HPLC and analyzed by mass spectrometry. Three nmol of peptides were digested in vitro using 1 µg of proteasomes (for 0.5, 1, 2, 4, 8 and 18 h) in 100 µl of buffer containing 20 mM Hepes/KOH, pH 7.8, 2 mM magnesium acetate and 2 mM dithiothreitol. Reactions were stopped by the addition of trifluoroacetic acid to a final concentration of 0.3%. The digestions were analyzed, by mass spectrometry (RP-HPLC ESI) and the products were identified by MS/MS.

Consider `CC[C@H](C)[C@H](NC(=O)[C@H]([C@@H](C)CC)N(C)C(C)=O)C(=O)N[C@H](C(=O)N[C@@H](CC(C)C)C(=O)[C@@]1(C)CO1)[C@@H](C)O` [Epoxomicin, epoxomicin], for which the “effect on activation of Q9VF/5D-specific CTLs by HIVLAI-infected cells” value in data set [1] (epoxomicin 1 µg/ml, 6 h at 37°C, citrate-phosphate buffer pH 3.3 wash, 8 h co-culture, IFNγ-ELISpot, representative of three CTL clones) was “abolished the capacity of HIVLAI-infected cells to activate Q9VF/5D-specific CTLs”. Further, the “effect on MHC-density and presentation of exogenous peptide” value in data set [1] (epoxomicin-treated T1-B7 cells, FACS, exogenous peptide 0.1 µg/ml) is “affected neither MHC-density”.

Turning to MGKSSRREGFQPRSNTHVFSIIRRSHP, the fragment found result in the data set with immunoproteasome (IP) was “Q9VF (Q11-F19), minor”. Also, the cleaved bond entry with immunoproteasomes (IP) was “F19-S20, 30 min; also recorded: S4-S5; also recorded: F10-Q11, 1 h; also recorded: I22-R23; also recorded: R24-S25; also recorded: N15-T16, major, 30 min”.

As for “MGKSSRREGFQPRSDTHVFSIIRRSHP [Q9VF/5D substrate]”, in data set [2], the metabolised at 0.5 h, 30 µM came to 24% and the metabolised at 2 h, 30 µM was 96%.

As to MGKSSRREGFQPRSDTHVFSIIRRSHP, the cleaved bond result with immunoproteasomes (IP) was “F10-Q11, major; also recorded: F19-S20, major, 30 min; also recorded: I22-R23, major; also recorded: R24-S25, major; also recorded: S14-D15; also recorded: S4-S5; also recorded: R6-R7; also recorded: R23-R24”.

On to “MGKSSRREGFQPRSNTHVFSIIRRSHP [Q9VF/5N substrate]”, for which, in data set [2], the metabolised at 0.5 h, 30 µM stood at 24% and the metabolised at 2 h, 30 µM is 96%.
